Source: PubChem BioAssay AID248 (DTP/NCI, 2004)
Several values for one entry are separate records, joined by “and”; a condition that tells them apart may be missing. Equal entries are not always repeated. Inconclusive results and toxic doses are left out.

System: L1210 leukemia ip in BDF1 mice, survival T/C
Assay: NCI In Vivo Anticancer Drug Screen. Data for tumor model L1210 Leukemia (intraperitoneal) in B6D2F1 (BDF1) mice
Settings: higher = longer survival
Outline: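 Antitumor effect is assessed in tumor-bearing animals. Survival in the compound arm is compared with a vehicle-dosed control arm and expressed as their quotient.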

[1] = endpoint: mean survival time, dose: 100.0 mg/kg/injection, schedule: Q01DX001 (ip), vehicle: saline
[2] = endpoint: mean survival time, dose: 400.0 mg/kg/injection, schedule: Q01DX001 (ip), vehicle: saline
[3] = endpoint: mean survival time, dose: 100.0 mg/kg/injection, schedule: Q01DX009 (ip), vehicle: Klucel (hydroxypropylcellulose) (HPC)
[4] = endpoint: mean survival time, dose: 200.0 mg/kg/injection, schedule: Q01DX009 (ip), vehicle: Klucel (hydroxypropylcellulose) (HPC)
[5] = endpoint: mean survival time, dose: 400.0 mg/kg/injection, schedule: Q01DX009 (ip), vehicle: Klucel (hydroxypropylcellulose) (HPC)

CCOC(=O)C(C(C)=O)C(CCc1cc(OC)ccc1OC)C(C(C)=O)C(=O)OCC (stereo not drawn)
T/C [1]: 109 % of control | T/C (endpoint: mean survival time, dose: 200.0 mg/kg/injection, schedule: Q01DX001 (ip), vehicle: saline): 101 % of control | T/C [2]: 97 % of control

COc1cc([N+](=O)[O-])ccc1NC(=O)Oc1ccc(NC(C)=O)cc1
T/C [3]: 101 % of control | T/C [4]: 106 % of control | T/C [5]: 91 % of control

O=C1c2ccccc2C(=O)N1CNc1ccccc1Cl
T/C (endpoint: mean survival time, dose: 100.0 mg/kg/injection, schedule: Q01DX009 (ip), vehicle: saline with Tween-80): 93 % of control | T/C (endpoint: mean survival time, dose: 100.0 mg/kg/injection, schedule: Q04DX002 (ip), vehicle: saline with Tween-80): 98 % of control | T/C (endpoint: mean survival time, dose: 200.0 mg/kg/injection, schedule: Q01DX009 (ip), vehicle: saline with Tween-80): 93 % of control | T/C (endpoint: mean survival time, dose: 200.0 mg/kg/injection, schedule: Q04DX002 (ip), vehicle: saline with Tween-80): 91 % of control | T/C (endpoint: mean survival time, dose: 400.0 mg/kg/injection, schedule: Q01DX009 (ip), vehicle: saline with Tween-80): 100 % of control | T/C (endpoint: mean survival time, dose: 400.0 mg/kg/injection, schedule: Q04DX002 (ip), vehicle: saline with Tween-80): 88 % of control

S=C(Nc1ccccc1)Nc1ncn[nH]1
T/C (endpoint: mean survival time, dose: 75.0 mg/kg/injection, schedule: Q01DX001 (ip), vehicle: carboxymethylcellulose (CMC)): 95 % of control | T/C (endpoint: mean survival time, dose: 150.0 mg/kg/injection, schedule: Q01DX001 (ip), vehicle: carboxymethylcellulose (CMC)): 98 % of control | T/C (endpoint: mean survival time, dose: 300.0 mg/kg/injection, schedule: Q01DX001 (ip), vehicle: carboxymethylcellulose (CMC)): 88 % of control

NC(N)=N/N=C(/c1cccs1)C1CC1
T/C (endpoint: mean survival time, dose: 15.0 mg/kg/injection, schedule: Q01DX Z (ip), vehicle: methylcellulose (MC)): 101 % of control | T/C (endpoint: mean survival time, dose: 15.0 mg/kg/injection, schedule: Q01DX Z (oral), vehicle: methylcellulose (MC)): 92 % of control | T/C (endpoint: mean survival time, dose: 30.0 mg/kg/injection, schedule: Q01DX Z (ip), vehicle: methylcellulose (MC)): 96 % of control | T/C (endpoint: mean survival time, dose: 30.0 mg/kg/injection, schedule: Q01DX Z (oral), vehicle: methylcellulose (MC)): 97 % of control | T/C (endpoint: mean survival time, dose: 60.0 mg/kg/injection, schedule: Q01DX Z (ip), vehicle: methylcellulose (MC)): 110 % of control | T/C (endpoint: mean survival time, dose: 120.0 mg/kg/injection, schedule: Q01DX Z (ip), vehicle: methylcellulose (MC)): 97 % of control

CCCCCCCCCCCCCCCCCC(=O)NCNC(=O)CCCCCCCCCCCCCCCCC
T/C (endpoint: mean survival time, dose: 9.37 mg/kg/injection, schedule: Q01DX009 (ip), vehicle: saline with Tween-80): 92 % of control | T/C (endpoint: mean survival time, dose: 18.75 mg/kg/injection, schedule: Q01DX009 (ip), vehicle: saline with Tween-80): 90 % of control | T/C (endpoint: mean survival time, dose: 37.5 mg/kg/injection, schedule: Q01DX009 (ip), vehicle: saline with Tween-80): 86 % of control and 89 % of control | T/C (endpoint: mean survival time, dose: 37.5 mg/kg/injection, schedule: Q04DX003 (ip), vehicle: saline with Tween-80): 89 % of control | T/C (endpoint: mean survival time, dose: 75.0 mg/kg/injection, schedule: Q04DX003 (ip), vehicle: saline with Tween-80): 89 % of control | T/C (endpoint: mean survival time, dose: 150.0 mg/kg/injection, schedule: Q04DX003 (ip), vehicle: saline with Tween-80): 87 % of control

O=[N+]([O-])c1cc(S(=O)(=O)F)ccc1O
T/C (endpoint: mean survival time, dose: 5.0 mg/kg/injection, schedule: Q01DX001 (ip), vehicle: other): 112 % of control | T/C (endpoint: mean survival time, dose: 10.0 mg/kg/injection, schedule: Q01DX001 (ip), vehicle: other): 97 % of control | T/C (endpoint: mean survival time, dose: 20.0 mg/kg/injection, schedule: Q01DX001 (ip), vehicle: other): 95 % of control | T/C (endpoint: mean survival time, dose: 40.0 mg/kg/injection, schedule: Q01DX001 (ip), vehicle: other): 101 % of control | T/C (endpoint: mean survival time, dose: 80.0 mg/kg/injection, schedule: Q01DX001 (ip), vehicle: other): 106 % of control

O=C(OC1CSC1)c1ccc([N+](=O)[O-])cc1
T/C [3]: 95 % of control | T/C [4]: 92 % of control | T/C [5]: 97 % of control

CC(=O)OC1CCC2(C)C(CCC3C4CC(N5CC5)C(C(C)=O)C4(C)CC(=O)C32)C1 (stereo not drawn)
T/C (endpoint: mean survival time, dose: 100.0 mg/kg/injection, schedule: Q01DX001 (sc), vehicle: steriod suspending solution): 99 % of control | T/C (endpoint: mean survival time, dose: 200.0 mg/kg/injection, schedule: Q01DX001 (sc), vehicle: steriod suspending solution): 100 % of control | T/C (endpoint: mean survival time, dose: 400.0 mg/kg/injection, schedule: Q01DX001 (sc), vehicle: steriod suspending solution): 94 % of control

N#CC(c1ccc(Cl)cc1)C(C/C(=N/Nc1ccc([N+](=O)[O-])cc1[N+](=O)[O-])c1ccccc1)c1ccccc1 (stereo not drawn)
T/C (endpoint: mean survival time, dose: 25.0 mg/kg/injection, schedule: Q01DX001 (ip), vehicle: saline with Tween-80): 91 % of control | T/C (endpoint: mean survival time, dose: 50.0 mg/kg/injection, schedule: Q01DX001 (ip), vehicle: saline with Tween-80): 93 % of control | T/C (endpoint: mean survival time, dose: 100.0 mg/kg/injection, schedule: Q01DX001 (ip), vehicle: saline with Tween-80): 95 % of control

O=C1c2ccccc2C(=O)N1CCCCCCCCCN1C(=O)c2ccccc2C1=O
T/C (endpoint: mean survival time, dose: 100.0 mg/kg/injection, schedule: Q04DX002 (ip), vehicle: Klucel (hydroxypropylcellulose) (HPC)): 113 % of control | T/C (endpoint: mean survival time, dose: 200.0 mg/kg/injection, schedule: Q04DX002 (ip), vehicle: Klucel (hydroxypropylcellulose) (HPC)): 90 % of control | T/C (endpoint: mean survival time, dose: 400.0 mg/kg/injection, schedule: Q04DX002 (ip), vehicle: Klucel (hydroxypropylcellulose) (HPC)): 90 % of control

NC(=S)NNc1ccccn1
T/C (endpoint: mean survival time, dose: 3.13 mg/kg/injection, schedule: Q01DX009 (ip), vehicle: saline): 108 % of control | T/C (endpoint: mean survival time, dose: 6.25 mg/kg/injection, schedule: Q01DX009 (ip), vehicle: saline): 96 % of control | T/C (endpoint: mean survival time, dose: 12.5 mg/kg/injection, schedule: Q01DX009 (ip), vehicle: saline): 101 % of control | T/C (endpoint: mean survival time, dose: 100.0 mg/kg/injection, schedule: Q04DX002 (ip), vehicle: saline): 94 % of control

COc1ccc(/C=C2\CS(=O)(=O)C/C(=C\c3ccc(OC)cc3)C2=O)cc1
T/C [1]: 94 % of control | T/C [2]: 95 % of control

CC(C)NC(=O)c1ccc(/C=N/N(C)C)cc1
T/C (endpoint: mean survival time, dose: 25.0 mg/kg/injection, schedule: Q04DX003 (ip), vehicle: Klucel (hydroxypropylcellulose) (HPC)): 104 % of control | T/C (endpoint: mean survival time, dose: 50.0 mg/kg/injection, schedule: Q04DX003 (ip), vehicle: Klucel (hydroxypropylcellulose) (HPC)): 106 % of control | T/C (endpoint: mean survival time, dose: 100.0 mg/kg/injection, schedule: Q04DX003 (ip), vehicle: Klucel (hydroxypropylcellulose) (HPC)): 95 % of control | T/C (endpoint: mean survival time, dose: 200.0 mg/kg/injection, schedule: Q04DX003 (ip), vehicle: Klucel (hydroxypropylcellulose) (HPC)): 101 % of control

COc1cccc2c1C(=O)c1c(O)c3c(c(O)c1C2=O)CC(O)(C(C)=O)CC3OC1CC(N)C(O)C(C)O1 (stereo not drawn)
T/C (endpoint: mean survival time, dose: 2.0 mg/kg/injection, schedule: Q01DX001 (ip), vehicle: saline): 121 % of control | T/C (endpoint: mean survival time, dose: 8.0 mg/kg/injection, schedule: Q01DX009 (ip), vehicle: saline): 98 % of control | T/C (endpoint: mean survival time, dose: 16.0 mg/kg/injection, schedule: Q01DX001 (ip), vehicle: saline): 121 % of control | T/C (endpoint: mean survival time, dose: 32.0 mg/kg/injection, schedule: Q01DX001 (ip), vehicle: saline): 100 % of control | T/C (endpoint: median survival time, dose: 6.0 mg/kg/injection, schedule: Q01DX005 (ip), vehicle: other): 117 % of control | T/C (endpoint: median survival time, dose: 6.0 mg/kg/injection, schedule: Q04DX003 (ip), vehicle: water): 122 % of control | T/C (endpoint: median survival time, dose: 6.6 mg/kg/injection, schedule: Q01DX005 (ip), vehicle: water): 115 % of control | T/C (endpoint: median survival time, dose: 10.0 mg/kg/injection, schedule: Q04DX003 (ip), vehicle: water): 115 % of control | T/C (endpoint: median survival time, dose: 11.0 mg/kg/injection, schedule: Q01DX005 (ip), vehicle: other): 117 % of control | T/C (endpoint: median survival time, dose: 11.0 mg/kg/injection, schedule: Q01DX005 (ip), vehicle: water): 121 % of control | T/C (endpoint: median survival time, dose: 16.0 mg/kg/injection, schedule: Q01DX005 (ip), vehicle: other): 117 % of control | T/C (endpoint: median survival time, dose: 17.0 mg/kg/injection, schedule: Q04DX003 (ip), vehicle: water): 155 % of control | T/C (endpoint: median survival time, dose: 21.0 mg/kg/injection, schedule: Q01DX005 (ip), vehicle: other): 122 % of control | T/C (endpoint: median survival time, dose: 31.0 mg/kg/injection, schedule: Q01DX005 (ip), vehicle: other): 121 % of control | T/C (endpoint: median survival time, dose: 48.0 mg/kg/injection, schedule: Q04DX003 (ip), vehicle: water): 115 % of control | T/C (endpoint: median survival time, dose: 80.0 mg/kg/injection, schedule: Q04DX003 (ip), vehicle: water): 157 % of control | T/C (endpoint: median survival time, dose: 83.0 mg/kg/injection, schedule: Q01DX005 (ip), vehicle: water): 100 % of control | T/C (endpoint: median survival time, dose: 133.0 mg/kg/injection, schedule: Q04DX003 (ip), vehicle: water): 115 % of control | T/C (endpoint: median survival time, dose: 222.0 mg/kg/injection, schedule: Q04DX003 (ip), vehicle: water): 89 % of control
